According to PubChem BioAssay (NCI):
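Following 48 hours of exposure in 96-well plates, responses at five concentrations were used to interpolate endpoints linearly. Here, GI50 denotes the concentration required for 50% inhibition of growth. The concentration for full growth arrest is given as TGI.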

Key:
Experiment in all cases: DTP human tumour cell line panel, 48 h
SNB-75 CNS = tested on: SNB-75 CNS
RXF 393 renal = tested on: RXF 393 renal
UACC-257 melanoma = tested on: UACC-257 melanoma
M14 melanoma = tested on: M14 melanoma
HL-60(TB) leukemia = tested on: HL-60(TB) leukemia
SK-MEL-2 melanoma = tested on: SK-MEL-2 melanoma
SK-MEL-5 melanoma = tested on: SK-MEL-5 melanoma
SNB-19 CNS = tested on: SNB-19 CNS
COLO 205 colon = tested on: COLO 205 colon
NCI-H522 lung = tested on: NCI-H522 lung

Row | SMILES | GI50 (SNB-75 CNS) [nM] | TGI (SNB-75 CNS) [µM] | GI50 (RXF 393 renal) [nM] | TGI (RXF 393 renal) [µM] | GI50 (UACC-257 melanoma) [µM] | GI50 (M14 melanoma) [nM] | TGI (M14 melanoma) [µM] | GI50 (HL-60(TB) leukemia) [nM] | TGI (HL-60(TB) leukemia) [µM] | GI50 (SK-MEL-2 melanoma) [nM] | TGI (SK-MEL-2 melanoma) [µM] | GI50 (SK-MEL-5 melanoma) [nM] | TGI (SK-MEL-5 melanoma) [µM] | GI50 (SNB-19 CNS) [nM] | TGI (SNB-19 CNS) [µM] | GI50 (COLO 205 colon) [nM] | TGI (COLO 205 colon) [µM] | GI50 (NCI-H522 lung) [nM] | TGI (NCI-H522 lung) [µM] | TGI (UACC-257 melanoma) [µM]
1 | COCC[C@H]1CCC/C=C/[C@@H]2C[C@H](O)C[C@H]2[C@H](O)/C=C/C(=O)O1 | 42.3 | > 100 | 21.9 | 0.0539 | 0.035 | 43.6 | > 100 | 273 | 0.87 | 177 | 0.636 | 17.2 | 0.0319 | 191 | > 100 | 22.7 | 0.0472 | 210 | 0.557 | –
2 | CCNCCNc1cc(-c2ccc(C(F)(F)F)cc2)c(C#N)c2nc3ccccc3n12 | 1230 | 2.54 | 1690 | 3.16 | 2.18 | 1660 | 3.16 | 203 | 0.468 | 2030 | 3.87 | 1670 | 3.04 | 1720 | 3.32 | 1010 | 2.41 | 1820 | 3.66 | 3.83
3 | COc1ccc(CN2CC(C)(C)C2=O)c(OC)c1 | – | > 100 | – | > 100 | – | – | > 100 | – | > 100 | – | > 100 | – | > 100 | – | > 100 | – | > 100 | – | > 100 | > 100
4 | COc1ccc(C(=O)c2cc(OC)c(OC)c(OC)c2)cc1/C=C/C(=O)c1ccc(F)cc1 | 3180 | 20.7 | 7290 | 23.3 | 12.3 | 3390 | 18 | 4800 | > 100 | 9890 | 38.2 | 4310 | 15.5 | 2260 | 5.96 | 5180 | 28.1 | 2020 | 5.34 | 49.7
5 | O=C1c2cccnc2-c2nc(-c3ccc(Cl)cc3)cc3c2c1nc1ccccc13 | 57900 | > 100 | 30800 | > 100 | 57.7 | 19900 | 58 | 37600 | > 100 | 76500 | > 100 | 17500 | 80.8 | > 100000 | > 100 | > 100000 | > 100 | 21000 | > 100 | > 100
6 | NC(=O)c1cc(Cl)ccc1NC(=O)/C=C/c1ccccc1 | 3160 | > 23.7 | 2190 | 6.53 | > 38.8 | 2250 | > 31.5 | 1280 | 4.4 | 3950 | > 39.3 | 787 | – | 4470 | > 55.6 | 2160 | > 24.1 | 1810 | 6.42 | > 100
7 | CCOC(=O)/C(C)=C(/O)C(=O)OCC | – | > 100 | – | > 100 | – | – | > 100 | – | > 100 | – | > 100 | – | > 100 | – | > 100 | – | > 100 | – | > 100 | > 100
8 | CCc1nc(N)nc(N)c1-c1ccc(NC)c([N+](=O)[O-])c1 | – | > 100 | – | > 93.3 | – | – | > 100 | – | > 51.8 | – | > 92.5 | – | 29.1 | – | > 80.4 | – | 34.4 | – | > 57.2 | > 100
9 | COc1ccc(C[N+](C)(C)N)cc1OC | > 100000 | > 100 | – | > 100 | > 100 | > 100000 | > 100 | > 100000 | > 100 | – | > 100 | > 100000 | > 100 | > 100000 | > 100 | > 100000 | > 100 | > 100000 | > 100 | > 100
10 | Cc1cc(C)c(NC(=O)c2sc3nc4c(cc3c2N)C(=O)CCC4)c(C)c1 | 2280 | > 100 | 1320 | 4.43 | 10 | 2310 | > 100 | 3640 | > 100 | 468 | 38.7 | 998 | 13.8 | 6120 | > 100 | 3230 | > 100 | 600 | 3.06 | > 95.9
11 | Nc1nc(Nc2cccnc2)sc1C(=O)c1ccccc1F | 580 | 4.74 | 1900 | 4.39 | 4.29 | 4640 | 20.2 | 2090 | 4.81 | 2920 | 9.79 | 349 | 3.32 | 2650 | > 23.5 | 1780 | 4.68 | 8260 | > 64.1 | 40.1
12 | c1cnn(CN(Cn2cccn2)Cn2cccn2)c1 | – | > 100 | – | > 100 | – | – | > 100 | – | > 100 | – | > 100 | – | > 100 | – | > 100 | – | > 100 | – | > 100 | > 100
